According to patent publication US10519151B2, “Substituted [1,2,4]triazolo[4,3-A]pyridines, their preparation and their use as pharmaceuticals” (NEOMED Institute, priority 2016, dated 2019):

System: human C-Myc gene transcription in MV-4-11 cells
Assay: Transcription of human C-Myc in human leukemic MV-4-11 cells (QuantiGene 2.0 assay)
Format: cell-based
Conditions: MV4-11, 4 hours treatment, C-Myc mRNA by QuantiGene 2.0, read-out: IC50 (inhibition of C-Myc transcription)
Protocol: Transcription of Human C-Myc in Human Leukemic MV-4-11 Cells
The effect of compounds on transcription of human C-Myc gene is monitored in human B-myelomonocytic leukemia cell line MV-4-11 (from American Type Culture Collection (ATCC), Manassas, Va., USA) using QuantiGene 2.0 assay kit (Affymetrix, Santa Clara, Calif., USA).
Typically, 8,000 MV-4-11 cells are plated in sterile 96-well plates (Costar #3598 from Fisher Scientific Canada, Ottawa, Ontario, Canada) in Iscove's medium supplemented with 10% fetal bovine serum, glutamine (2 mM), and penicillin (100 I.U.) and streptomycin (100 μg/mL) (all from Wisent Inc., St. Bruno, Quebec, Canada). Compounds are dissolved in DMSO at 30 mM. A series of 1:3 dilutions are first made in DMSO, and further […] dilutions are made in serum-containing cell culture media. The final concentration of DMSO is 0.1% in cell culture media. After cells are treated with various concentrations of test compound for 4 hours, cells are lysed using Quantigene 2.0 sample processing kit (#QS0100). C-Myc mRNA is detected using a QuantiGene 2.0 assay kit (#QS0009) with gene-specific probe to human C-Myc (#SA-50182) following the manufacturer's recommendations. Luminescence signals are read on Flexstation II microplate reader (Molecular Devices, Sunnyvale, Calif., USA).

First: Cc1cc(-c2ccc3nnc(Cc4ccccc4)n3c2)cn(C)c1=O [Compound 1, 5-(3-benzyl-[1,2,4]triazolo[4,3-a]pyridin-6-yl)-1,3-dimethyl-pyridin-2-one]
Second: Cc1cc(-c2ccc3nnc(CCc4ccccc4)n3c2)cn(C)c1=O [Compound 26, 1,3-dimethyl-5-[3-(2-phenylethyl)-[1,2,4]triazolo[4,3-a]pyridin-6-yl]pyridin-2-one]
The IC50 of the first is 3.3-fold lower: 253 nM for the first, 835 nM for the second.

First: Cc1cc(-c2ccc3nnc(CC4CCOCC4)n3c2)cn(C)c1=O [Compound 2]
Second: Cc1cc(-c2ccc3nnc(CC4CCCCC4)n3c2)cn(C)c1=O [Compound 8, 5-[3-(cyclohexylmethyl)-[1,2,4]triazolo[4,3-a]pyridin-6-yl]-1,3-dimethyl-pyridin-2-one]
The IC50 of the first is 15-fold higher: 2340 nM for the first, 158 nM for the second.

Compared with Cc1cc(-c2ccc3nnc(Cc4ccc(F)cc4)n3c2)cn(C)c1=O [Compound 3, 5-[3-[(4-fluorophenyl)methyl]-[1,2,4]triazolo[4,3-a]pyridin-6-yl]-1,3-dimethyl-pyridin-2-one], Cc1cc(-c2ccc3nnc(Cc4ccc(Cl)cc4)n3c2)cn(C)c1=O [Compound 4, 5-[3-[(4-chlorophenyl)methyl]-[1,2,4]triazolo[4,3-a]pyridin-6-yl]-1,3-dimethyl-pyridin-2-one] is 3.2-fold lower in IC50: 495 nM for the first, 156 nM for the second.

Going from Cc1cc(-c2ccc3nnc(Cc4cccc(C(F)(F)F)c4)n3c2)cn(C)c1=O [Compound 5, 1,3-dimethyl-5-[3-[[3-(trifluoromethyl)phenyl]methyl]-[1,2,4]triazolo[4,3-a]pyridin-6-yl]pyridin-2-one] to Cc1cc(-c2ccc3nnc(Cc4ccc(C(F)(F)F)cc4)n3c2)cn(C)c1=O [Compound 10, 1,3-dimethyl-5-[3-[[4-(trifluoromethyl)phenyl]methyl][1,2,4]triazolo[4,3-a]pyridin-6-yl]pyridin-2-one], the IC50 rises from 146 nM to 484 nM (3.3-fold). The first is the more potent here.

First: Cc1cc(-c2ccc3nnc(Cc4ccccc4F)n3c2)cn(C)c1=O [Compound 6, 5-[3-[(2-fluorophenyl)methyl]-[1,2,4]triazolo[4,3-a]pyridin-6-yl]-1,3-dimethyl-pyridin-2-one]
Second: Cc1cc(-c2ccc3nnc(Cc4cccc(F)c4)n3c2)cn(C)c1=O [Compound 13, 5-[3-[(3-fluorophenyl)methyl]-[1,2,4]triazolo[4,3-a]pyridin-6-yl]-1,3-dimethyl-pyridin-2-one]
The IC50 of the first is 1.7-fold higher: 461 nM for the first, 269 nM for the second.

Cc1cc(-c2ccc3nnc([C@@H](C)c4ccccc4)n3c2)cn(C)c1=O [Compound 7, 1,3-dimethyl-5-[3-[(1 S)-1-phenylethyl]-[1,2,4]triazolo[4,3-a]pyridin-6-yl]pyridin-2-one] and Cc1cc(-c2ccc3nnc([C@H](C)c4ccccc4)n3c2)cn(C)c1=O [Compound 12, 1,3-dimethyl-5-[3-[(1R)-1-phenylethyl]-[1,2,4]triazolo[4,3-a]pyridin-6-yl]pyridin-2-one] are within 1.5-fold of each other in IC50: 85 nM for the first, 100 nM for the second.

Cc1cc(-c2ccc3nnc(Cc4cc(F)cc(F)c4)n3c2)cn(C)c1=O [Compound 9, 5-[3-[(3,5-difluorophenyl)methyl]-[1,2,4]triazolo[4,3-a]pyridin-6-yl]-1,3-dimethyl-pyridin-2-one] and Cc1cc(-c2ccc3nnc(C4(c5cccc(F)c5)CC4)n3c2)cn(C)c1=O [Compound 21, 5-[3-[1-(3-fluorophenyl)cyclopropyl]-[1,2,4]triazolo[4,3-a]pyridin-6-yl]-1,3-dimethyl-pyridin-2-one] are within 1.5-fold of each other in IC50: 183 nM for the first, 158 nM for the second.

Cc1cc(-c2ccc3nnc(C4(c5ccccc5)CC4)n3c2)cn(C)c1=O [Compound 11, 1,3-dimethyl-5-[3-(1-phenylcyclopropyl)-[1,2,4]triazolo[4,3-a]pyridin-6-yl]pyridin-2-one] and Cc1cc(-c2ccc3nnc(C4(c5ccccc5)CCC4)n3c2)cn(C)c1=O [Compound 22, 1,3-dimethyl-5-[3-(1-phenylcyclobutyl)-[1,2,4]triazolo[4,3-a]pyridin-6-yl]pyridin-2-one] are within 1.5-fold of each other in IC50: 90 nM for the first, 74 nM for the second.

Cc1cc(-c2ccc3nnc(C4(c5cccc(Cl)c5)CC4)n3c2)cn(C)c1=O [Compound 14, 5-[3-[1-(3-chlorophenyl)cyclopropyl]-[1,2,4]triazolo[4,3-a]pyridin-6-yl]-1,3-dimethyl-pyridin-2-one] and Cc1cccc(C2(c3nnc4ccc(-c5cc(C)c(=O)n(C)c5)cn34)CC2)c1 [Compound 19, 1,3-dimethyl-5-[3-[1-(m-tolyl)cyclopropyl]-[1,2,4]triazolo[4,3-a]pyridin-6-yl]pyridin-2-one] are within 1.5-fold of each other in IC50: 89 nM for the first, 88 nM for the second.

First: Cc1cc(-c2ccc3nnc(C4(c5ccc(Cl)cc5)CC4)n3c2)cn(C)c1=O [Compound 15, 5-[3-[1-(4-chlorophenyl)cyclopropyl]-[1,2,4]triazolo[4,3-a]pyridin-6-yl]-1,3-dimethyl-pyridin-2-one]
Second: Cc1cc(-c2ccc3nnc(C4(c5ccc(Cl)cc5)CCC4)n3c2)cn(C)c1=O [Compound 18, 5-[3-[1-(4-chlorophenyl)cyclobutyl]-[1,2,4]triazolo[4,3-a]pyridin-6-yl]-1,3-dimethyl-pyridin-2-one]
The IC50 of the first is 2.3-fold lower: 250 nM for the first, 563 nM for the second. The first is the more potent here.

Going from Cc1ccc(C2(c3nnc4ccc(-c5cc(C)c(=O)n(C)c5)cn34)CC2)cc1 [Compound 16, 1,3-dimethyl-5-[3-[1-(p-tolyl)cyclopropyl]-[1,2,4]triazolo[4,3-a]pyridin-6-yl]pyridin-2-one] to Cc1cc(-c2ccc3nnc(C4(c5cccc(C(F)(F)F)c5)CC4)n3c2)cn(C)c1=O [Compound 20, 1,3-dimethyl-5-[3-[1-[3-(trifluoromethyl)phenyl]cyclopropyl][1,2,4]-triazolo[4,3-a]pyridin-6-yl]pyridin-2-one], the IC50 falls from 226 nM to 61 nM (3.7-fold).

First: Cc1cc(-c2ccc3nnc(C(C)(C)c4ccc(Cl)cc4)n3c2)cn(C)c1=O [Compound 17, 5-[3-[1-(4-chlorophenyl)-1-methyl-ethyl]-[1,2,4]triazolo[4,3-a]pyridin-6-yl]-1,3-dimethyl-pyridin-2-one]
Second: Cc1cc(-c2ccc3nnc(C(C)(C)c4cccc(Cl)c4)n3c2)cn(C)c1=O [Compound 24, 5-[3-[1-(3-chlorophenyl)-1-methyl-ethyl]-[1,2,4]triazolo[4,3-a]pyridin-6-yl]-1,3-dimethyl-pyridin-2-one]
The IC50 of the first is 6.6-fold higher: 590 nM for the first, 90 nM for the second.

Compared with Cc1cc(-c2ccc3nnc(C4(c5ccccc5)CCCC4)n3c2)cn(C)c1=O [Compound 23, 1,3-dimethyl-5-[3-(1-phenylcyclopentyl)-[1,2,4]triazolo[4,3-a]pyridin-6-yl]pyridin-2-one], Cc1cc(-c2ccc3nnc(C4(c5ccccc5)CCCCC4)n3c2)cn(C)c1=O [Compound 25, 1,3-dimethyl-5-[3-(1-phenylcyclohexyl)-[1,2,4]triazolo[4,3-a]pyridin-6-yl]pyridin-2-one] is 1.6-fold lower in IC50: 85 nM for the first, 54 nM for the second. The second is the more potent here.

With Cc1cc(-c2ccc3nnc(C(C)(C)c4ccccc4)n3c2)cn(C)c1=O [Compound 27, 1,3-dimethyl-5-[3-(1-methyl-1-phenyl-ethyl)-[1,2,4]triazolo[4,3-a]-pyridin-6-yl]pyridin-2-one] the IC50 was 227 nM.
